Test results reported in patent US20060025398A1, “Topical antiviral therapeutic and prophylactic treatment of adenoviruses and their associated diseases” (priority 2003, published 2006).
Entries after “also recorded” stand apart in the source; their conditions may differ.

Tests used:
Adenovirus type 5 (Ad5) = assay: Adenovirus type 5 titers following direct exposure of the virus to CTC-96 prior to HeLa cell infection (plaque assay); format: cell-based; conditions: Ad5 incubated with CTC-96 at 37° C. for 60 minutes, diluted 500 fold, HeLa cells
Description: (§1) Anti-adenovirus activity of CTC-96 was evaluated by standard cell culture using HeLa cells, a human cervical carcinoma immortalized cell line (the usual host for laboratory grade adenovirus) and anti-viral plaque-reduction assays.
The data graphically depicted in FIG. 1 were obtained as follows: varying concentrations of the CTC-96 were mixed with concentrated Human Adenovirus, [Adenovirus type 5 (Ad5)] and incubated at 37° C. for 60 minutes. Aliquots were then diluted 500 fold into growth medium. Hela cells were exposed to 100 μl of the diluted material to initiate infection. These monolayers were incubated for 24 hours at 37% and 5% CO2 and then washed, scraped, sonicated, centrifuged and the supernatant serially diluted. These serial dilutions were plated onto indicator HeLa cell monolayers and adsorbed for 60 min, aspirated and a methycellulose overlay placed over the cells, which were then incubated for 3 days at 37%. Cultures were counterstained with 1% methylene blue, allowed to dry and the plaques counted. Results are expressed as mean±SD (where error bars are not visible they are contained within data point).

[1] = test system: human Adenovirus type 5 (Ad5); assay: Virus titers after exposure of Ad5 infected HeLa cells to CTC-96 (plaque assay); format: cell-based; conditions: Ad5 adsorbed onto HeLa monolayers 60 min, then CTC-96 for 24 hr
Description: Monolayers were then incubated for 24 hr at 37° C. and 5% CO2. Monolayers were then washed, scraped, sonicated, centrifuged and the supernatant serially diluted. These serial dilutions were plated onto indicator HeLa cell monolayers and adsorbed for 60 min, aspirated and a methylcellulose overlay placed over the cells, which were then incubated for 3 days at 37%. Cultures were counterstained with 1% methylene blue, allowed to dry and the plaques counted. Results am expressed as mean & SD (where error bars are not visible they are contained within data point).

Human Adenovirus Type 5 [2] = assay: Adenovirus recovery from tear film of infected rabbit eyes, plaque assay on HeLa cell monolayers; format: in vivo
Description: (§2) Clinical results and plaque assay viral titers of three CTC-96 treatment/dosing regimens of rabbit eyes infected with Human adenovirus, Adenovirus type 5 (Ad5), were evaluated. On “Day 1” animals were infected with Human Adenovirus Type 5 by the installation of 10^6 pfu adenovirus according to our protocol of conjunctival and corneal scarification for the induction of Keratoconjunctivitis. […] Animals were then randomized and the following experimental groups were treated with CTC-96 or placebo in a double blind experiment: • (1) Placebo (diluent alone), 9×/day, for 21 days: (4 rabbits). • (2) CTC-96 50 μg/ml, 9×/day, for 21 days: (4 rabbits). • (3) CTC-96 50 μg/ml, 6×/day, for 21 days: (4 rabbits). • (4) C T W 25 μg/ml, 6×/day, for 21 bays: (4 rabbits).
The efficacy of CTC-96 treatment of rabbit eyes infected with Human adenovirus, Adenovirus type 5 (Ad5), was also evaluated by adenovirus recovery from tear film cultures adsorbed onto confluent HeLa cell monolayers. […] On day 8 post-inoculation treatment with eye drops containing CTC-96 or placebo was initiated. Adenovirus recovery from tear film was evaluated by plaque assay on confluent HeLa cell monolayers. Data are presented as Average±SD.

[3] = test system: Adenovirus types 1, 2, 3, 4, 5, and 7; assay: CTC-96 efficacy against several adenovirus serotypes in HeLa cells in tissue culture (viral titers at each drug concentration); format: cell-based, Human Adenoviruses; conditions: drug overlaid after 1 hour adsorption, 24 hours, 500, 250, 100, 50, 10 μg/ml
Description: Since these human viruses cannot be grown in animal models, this provides an excellent indication of the effectiveness of CTC-96 against a broad spectrum of Adenovirus types. To determine CTC-96 efficacy against several types of serotypes of adevirus the following procedure was followed:
1. Hela cells were confluent at the time of inoculation.
2. Virus dilutions were prepared from the known titers of the stock viruses (4×10^5 pfu/ml; 4×10^4/0.1 ml) of Ad1 Kmetz, Ad2 Wolf, Ad3 Holyfield, Ad4 Harris, Ad7a Joseph, ATCC. This virus inoculation yielded a virus infection with an m.o.i. (multiplicity of infection) of approximately 1.0.
3. 100 µl of each Ad serotype were inoculated onto cultures containing Hela cells.
4. During the adsorption period, Doxovir concentrations of 500, 250, 100, 50, 10, and 0 μg/ml were prepared in culture medium according to the dilution protocol.
5. Virus was adsorbed at 37° C. in a 5% CO2 water-vapor atmosphere for 1 hour.
6. […]
13. Viral titers were determined at each drug concentration. […]
as §1

Human Adenovirus Type 5 [4] = assay: CTC-96 treatment of Adenovirus induced keratoconjunctivitis in rabbit eyes, clinical grading by slit lamp microscopy; format: in vivo; conditions: for progression of disease severity: 21 days, from day 8 post-inoculation
Description: as §2
Clinical disease progression and resolution were evaluated by slit lamp microscopy on days 1, 3, 7, 10, 13, 18, 21, 24, 28 and 31 after initial drug dosing. The intensity of the keratitis was quantified using a clinical grading system (5).
The data In FIG. 3 were obtained as follows: rabbits were infected with Human Adenovirus Type 5 by the installation 10^6 pfu adenovirus according to our protocol of conjunctival and corneal scarification for the production of Keratoconjunctivitis. On day 8 post-inoculation treatment with eye drops containing CTC-96 or placebo was initiated. Animals were examined for stromal keratitis and scored by the corneal disease scale of Wander et al. (5). The following are the Criteria For Determination Of Conjunctival Disease: […]

SMILES: CC(/C=C(/C)[O-])=NCCN=C(C)/C=C(/C)[O-].Cc1ncc[nH]1.Cc1ncc[nH]1.[Br-].[Co+3] [CTC-96]
- effect on virus growth when virus is exposed to the drug prior to cell infection (Adenovirus type 5 (Ad5)): inhibitory (prophylactic) effect on growth
- effect on viral growth in Adenovirus infected cells subsequently exposed to the drug [1]: inhibition of viral growth
- no detectable virus in the eye (Human Adenovirus Type 5 [2]; 50 μg/ml 6 times a day): ≤ 13 days
- no detectable virus in the eye (Human Adenovirus Type 5 [2]; 50 μg/ml 9 times a day): ≤ 13 days
- efficacy against Adenovirus types in culture [3]: effective against types 1, 2, 3, 4, 5, and 7; also recorded: efficacy against Adenovirus types 1, 2, 3, 4, 5, and 7
- complete resolution of clinical disease (day after initial drug dosing) (Human Adenovirus Type 5 [4]; 50 μg/ml 6 times a day for 21 days): ≤ 21 days
- complete resolution of clinical disease (day after initial drug dosing) (Human Adenovirus Type 5 [4]; 50 μg/ml 9 times a day for 21 days): ≤ 21 days
- progression of disease severity (Human Adenovirus Type 5 [4]; topical eye drops 25 μg/ml, 6×/day): prevented progression of disease severity
- progression of disease severity (Human Adenovirus Type 5 [4]; topical eye drops 50 μg/ml, 6×/day or 9×/day): prevented progression of disease severity
